Test system: patients with treatment-resistant depression (TRD)
Assay: Adverse events, phase 2 dose-response study in TRD
Assay type: in vivo, human
Conditions: double-blind
Protocol: Adverse events were monitored throughout the study. Other safety assessments (i.e., laboratory tests, vital signs, physical examination) were performed at pre-specified time points. Vital signs, the Clinician Administered Dissociative States Scale (CADSS; Bremner, “Measurement of dissociative states with the clinician-administered dissociative states scale (CADSS)”, J. Traumatic Stress, 1998, 11(1):125-136), and the 4-item positive symptom subscale from the Brief Psychiatric Rating Scale (BPRS; Overall, “The Brief Psychiatric Rating Scale. Psychological Reports”, 1962, 10:799-812) were assessed pre-dose, at 40 minutes, and 2 hours post-dose.
Safety data were analyzed in Period 1, Period 2, double-blind, and open-label data sets, for all subjects receiving at least 1 dose of study medication.

`CN[C@]1(c2ccccc2Cl)CCCCC1=O` [esketamine, (S)-2-(2-chlorophenyl)-2-(methylamino)cyclohexanone] was tested, and the “Dissociation, number of participants” value (esketamine 28 mg, N = 19) was 0, the “Dissociative disorder, % of participants” value (esketamine 28 mg, N = 19) was “(11) %” and the “Dissociative disorder, number of participants” value (“Dissociative disorder, number” below) (esketamine 28 mg, N = 19) was 2. For the same molecule, the “Dizziness, % of participants” value (esketamine 28 mg, N = 19) was “(21) %”, the “Dizziness, number of participants” value (esketamine 28 mg, N = 19) was 4 and the “Dysgeusia, % of participants” value (esketamine 28 mg, N = 19) was “(11) %”. The “Dysgeusia, number of participants” value (esketamine 28 mg, N = 19) was 2, the “Feeling abnormal, % of participants” value (esketamine 28 mg, N = 19) was “(11) %” and the “Feeling abnormal, number of participants” value (esketamine 28 mg, N = 19) was 2. For the same molecule, the “Headache, % of participants” value (esketamine 28 mg, N = 19) was “(32) %”, the “Headache, number of participants” value (esketamine 28 mg, N = 19) was 6 and the “Hypersomnia, % of participants” value (esketamine 28 mg, N = 19) was “(11) %”. The “Hypersomnia, number of participants” value (esketamine 28 mg, N = 19) was 2, the “Hypertension, number of participants” value (esketamine 28 mg, N = 19) was 0 and the “Hypoesthesia oral, % of participants” value (esketamine 28 mg, N = 19) was “(5) %”. The “Hypoesthesia oral, number of participants” value (esketamine 28 mg, N = 19) was 1, the “Insomnia, number of participants” value (esketamine 28 mg, N = 19) was 0 and the “Nasal discomfort, number of participants” value (esketamine 28 mg, N = 19) was 0. The “Nausea, % of participants” value (esketamine 28 mg, N = 19) was “(11) %”, the “Nausea, number of participants” value (esketamine 28 mg, N = 19) was 2 and the “Oropharyngeal pain, number of participants” value (esketamine 28 mg, N = 19) was 0. For the same molecule, the “Polyuria, number of participants” value (esketamine 28 mg, N = 19) was 0, the “Sedation, % of participants” value (esketamine 28 mg, N = 19) was “(5) %” and the “Sedation, number of participants” value (esketamine 28 mg, N = 19) was 1. The “Throat irritation, % of participants” value (esketamine 28 mg, N = 19) was “(5) %”, the “Throat irritation, number of participants” value (esketamine 28 mg, N = 19) was 1 and the “Total with events, % of participants” value (esketamine 28 mg, N = 19) was “(58) %”. The “Total with events, number of participants” value (esketamine 28 mg, N = 19) was 11, the “Tunnel vision, number of participants” value (esketamine 28 mg, N = 19) was 0 and the “Vertigo, % of participants” value (esketamine 28 mg, N = 19) was “(11) %”. The “Vertigo, number of participants” value (esketamine 28 mg, N = 19) was 2, the “Vision blurred, number of participants” value (esketamine 28 mg, N = 19) was 0 and the “Dissociation, % of participants” value (esketamine 56 mg, N = 20) was “(35) %”. For the same molecule, the “Dissociation, number of participants” value (esketamine 56 mg, N = 20) was 7, the “Dissociative disorder, % of participants” value (esketamine 56 mg, N = 20) was “(5) %” and the “Dissociative disorder, number” value (esketamine 56 mg, N = 20) was 1. The “Dizziness, % of participants” value (esketamine 56 mg, N = 20) was “(40) %”, the “Dizziness, number of participants” value (esketamine 56 mg, N = 20) was 8 and the “Dysgeusia, % of participants” value (esketamine 56 mg, N = 20) was “(15) %”. For the same molecule, the “Dysgeusia, number of participants” value (esketamine 56 mg, N = 20) was 3, the “Feeling abnormal, % of participants” value (esketamine 56 mg, N = 20) was “(5) %” and the “Feeling abnormal, number of participants” value (esketamine 56 mg, N = 20) was 1. The “Headache, % of participants” value (esketamine 56 mg, N = 20) was “(15) %”, the “Headache, number of participants” value (esketamine 56 mg, N = 20) was 3 and the “Hypersomnia, number of participants” value (esketamine 56 mg, N = 20) was 0. For the same molecule, the “Hypertension, % of participants” value (esketamine 56 mg, N = 20) was “(10) %”, the “Hypertension, number of participants” value (esketamine 56 mg, N = 20) was 2 and the “Hypoesthesia oral, % of participants” value (esketamine 56 mg, N = 20) was “(20) %”. For the same molecule, the “Hypoesthesia oral, number of participants” value (esketamine 56 mg, N = 20) was 4, the “Insomnia, % of participants” value (esketamine 56 mg, N = 20) was “(10) %” and the “Insomnia, number of participants” value (esketamine 56 mg, N = 20) was 2. The “Nasal discomfort, % of participants” value (esketamine 56 mg, N = 20) was “(10) %”, the “Nasal discomfort, number of participants” value (esketamine 56 mg, N = 20) was 2 and the “Nausea, % of participants” value (esketamine 56 mg, N = 20) was “(20) %”. The “Nausea, number of participants” value (esketamine 56 mg, N = 20) was 4, the “Oropharyngeal pain, % of participants” value (esketamine 56 mg, N = 20) was “(5) %” and the “Oropharyngeal pain, number of participants” value (esketamine 56 mg, N = 20) was 1. The “Polyuria, % of participants” value (esketamine 56 mg, N = 20) was “(10) %”, the “Polyuria, number of participants” value (esketamine 56 mg, N = 20) was 2 and the “Sedation, % of participants” value (esketamine 56 mg, N = 20) was “(10) %”. For the same molecule, the “Sedation, number of participants” value (esketamine 56 mg, N = 20) was 2, the “Throat irritation, number of participants” value (esketamine 56 mg, N = 20) was 0 and the “Total with events, % of participants” value (esketamine 56 mg, N = 20) was “(80) %”. The “Total with events, number of participants” value (esketamine 56 mg, N = 20) was 16, the “Tunnel vision, number of participants” value (esketamine 56 mg, N = 20) was 0 and the “Vertigo, % of participants” value (esketamine 56 mg, N = 20) was “(5) %”. The “Vertigo, number of participants” value (esketamine 56 mg, N = 20) was 1, the “Vision blurred, number of participants” value (esketamine 56 mg, N = 20) was 0 and the “Dissociation, % of participants” value (esketamine 84 mg, N = 17) was “(24) %”. For the same molecule, the “Dissociation, number of participants” value (esketamine 84 mg, N = 17) was 4, the “Dissociative disorder, % of participants” value (esketamine 84 mg, N = 17) was “(24) %” and the “Dissociative disorder, number” value (esketamine 84 mg, N = 17) was 4. For the same molecule, the “Dizziness, % of participants” value (esketamine 84 mg, N = 17) was “(47) %”, the “Dizziness, number of participants” value (esketamine 84 mg, N = 17) was 8 and the “Dysgeusia, % of participants” value (esketamine 84 mg, N = 17) was “(29) %”. The “Dysgeusia, number of participants” value (esketamine 84 mg, N = 17) was 5 and the “Feeling abnormal, % of participants” value (esketamine 84 mg, N = 17) was “(6) %”.
